Measurements as given in patent US20230081426A1, “COMPOUNDS AND METHODS FOR KRAS MODULATION AND INDICATIONS THEREFOR” (Plexxikon Inc., priority 2020, published 2023).

target: T1, G12D-mutant human KRAS (amino acid residues 1-188) (Homo sapiens, UniProt P01116, G12D); assay: KRAS Binding Disruption Assay (AlphaScreen; biotinylated KRpep-2d analogue or RAF1-RBD), G12D; details: KRAS G12D; geometric mean; read-out: KRAS GMean IC50 (uM) MUTATION: G12D
T1 construct: G12D or G12C-mutant human KRAS (amino acid residues 1-188) with FLAG tag; made in house; host or cells: E. coli
T1 sequence (P01116 1-188 isoform P01116-2 G12D): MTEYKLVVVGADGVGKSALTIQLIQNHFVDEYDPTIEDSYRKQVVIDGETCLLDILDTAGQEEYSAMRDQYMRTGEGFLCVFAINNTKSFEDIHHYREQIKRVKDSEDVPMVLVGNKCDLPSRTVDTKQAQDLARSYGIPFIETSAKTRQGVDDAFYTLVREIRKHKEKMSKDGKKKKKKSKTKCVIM
Description: Compound binding disrupts the interaction of KRpep-2d or RAF1-RBD with KRAS, leading to a decrease in Alpha signal.
All assay components were prepared in 20 mM HEPES (pH 7.5), 100 mM NaCl, 5 mM MgCl2, 0.01% Tween-20, and 0.01% BSA. Biotinylated analogues of KRpep-2d were custom synthesized. The binding disruption assays were performed using 5-20 nM of mutant KRAS and 5-20 nM of either biotinylated KRpep-2d analogue or RAF1-RBD. 19 μL of KRAS protein and 4 μL of biotinylated KRpep-2d or RAF1-RBD were added to the wells of a 384-well plate containing 1 μL of various concentrations of test compound or DMSO vehicle. 16 wells containing KRAS, biotinylated KRpep-2d or RAF1-RBD, and 5% DMSO served as high controls. 16 wells containing KRAS only and 5% DMSO served as low controls. Binding reactions were incubated for 1 hour at 25° C., then Anti-Flag Acceptor and Streptavidin Donor Alpha beads were added at a final concentration of 10 μg/mL for an additional hour at room temperature. Alpha signal was read out on a Perkin Elmer Envision HTS instrument. The percentage inhibition at individual compound concentrations relative to high and low controls was calculated. The data were analyzed by using nonlinear regression to generate IC50 values.

Question: How did the IC50 turn out when `CC(=O)NCC(C)(C)COc1nc(N2C[C@H]3CC[C@@H](C2)N3)c2ccc(-c3cc(O)cc4ccccc34)c(F)c2n1` [P-0591, N-(3-((4-((1R,5S)-3,8-diazabicyclo[3.2.1]octan-3-yl)-8-fluoro-7-(3-hydroxynaphthalen-1-yl)quinazolin-2-yl)oxy)-2,2-dimethylpropyl)acetamide] was run?
Answer: 0.0001 to 10 µM

Question: Which IC50 does the source give for `OCC1(CNc2nc(N3C[C@H]4CC[C@@H](C3)N4)c3ccc(-c4cc(O)cc5ccccc45)c(F)c3n2)CCC1` [P-0587, 4-(4-((1R,5S)-3,8-diazabicyclo[3.2.1]octan-3-yl)-8-fluoro-2-(((1-(hydroxymethyl)cyclobutyl)methyl)amino)quinazolin-7-yl)naphthalen-2-ol] here?
Answer: 0.0001 to 10 µM

Question: Which IC50 does the source give for `COCc1cccc2[nH]cc(-c3ccc4c(N5C[C@H]6CC[C@@H](C5)N6)nc(OCC56CCCN5CCC6)nc4c3F)c12` [P-0567, 4-((1R,5S)-3,8-diazabicyclo[3.2.1]octan-3-yl)-8-fluoro-7-(4-(methoxymethyl)-1H-indol-3-yl)-2-((tetrahydro-1H-pyrrolizin-7a(5H)-yl)methoxy)quinazoline] here?
Answer: 0.0001 to 10 µM

Question: Which IC50 does the source give for `CCC1(N)CN(c2nc(N3C[C@H]4CC[C@@H](C3)N4)c3ccc(-c4cc(O)cc5ccccc45)c(F)c3n2)C1` [P-0578, 4-(2-(3-amino-3-ethylazetidin-1-yl)-4-((1R,5S)-3,8-diazabicyclo[3.2.1]octan-3-yl)-8-fluoroquinazolin-7-yl)naphthalen-2-ol] here?
Answer: 0.0001 to 10 µM

Question: `CCCc1cccc2[nH]cc(-c3ccc4c(N5C[C@H]6CC[C@@H](C5)N6)nc(OCC56CCCN5CCC6)nc4c3F)c12` [P-0598, 4-((1R,5S)-3,8-diazabicyclo[3.2.1]octan-3-yl)-8-fluoro-7-(4-propyl-1H-indol-3-yl)-2-((tetrahydro-1H-pyrrolizin-7a(5H)-yl)methoxy)quinazoline] was tested. Which IC50 did it give?
Answer: 0.0001 to 10 µM

Question: With `Fc1c(-c2csc3ccccc23)ccc2c(N3C[C@H]4CC[C@@H](C3)N4)nc(OCC34CCCN3CCC4)nc12` [P-0533, 7-(benzo[b]thiophen-3-yl)-4-((1R,5S)-3,8-diazabicyclo[3.2.1]octan-3-yl)-8-fluoro-2-((tetrahydro-1H-pyrrolizin-7a(5H)-yl)methoxy)quinazoline] as the molecule, how does the IC50 read?
Answer: 0.0001 to 10 µM

Question: For `CC(=O)c1c(F)ccc2[nH]cc(-c3ccc4c(N5C[C@H]6CC[C@@H](C5)N6)nc(OCC56CCCN5CCC6)nc4c3F)c12` [P-0514], which IC50 is on record?
Answer: 0.0001 to 10 µM

Question: For `CS(=O)(=O)NCCN1[C@@H]2CC[C@H]1CN(c1nc(OCC34CCCN3CCC4)nc3c(F)c(-c4cc(O)cc5ccccc45)ccc13)C2` [P-0542, N-(2-((1R,5S)-3-(8-fluoro-7-(3-hydroxynaphthalen-1-yl)-2-((tetrahydro-1H-pyrrolizin-7a(5H)-yl)methoxy)quinazolin-4-yl)-3,8-diazabicyclo[3.2.1]octan-8-yl)ethyl)methanesulfonamide], which IC50 is on record?
Answer: 0.0001 to 10 µM

Question: For `CO[C@@H]1CN(C)C[C@H]1Oc1nc(N2C[C@H]3CC[C@@H](C2)N3)c2cc(Cl)c(-c3cc(O)cc4ccccc34)c(F)c2n1` [P-0035, 4-(4-((1R,5S)-3,8-diazabicyclo[3.2.1]octan-3-yl)-6-chloro-8-fluoro-2-(((3R,4R)-4-methoxy-1-methylpyrrolidin-3-yl)oxy)quinazolin-7-yl)naphthalen-2-ol], which IC50 is on record?
Answer: 0.0001 to 10 µM

Question: Which IC50 does the source give for `Oc1cc(-c2ccc3c(N4C[C@H]5CC[C@@H](C4)N5)nc(N4CC5CCNCC5C4)nc3c2F)c2ccccc2c1` (stereo partly drawn) [P-0509, 4-(4-((1R,5S)-3,8-diazabicyclo[3.2.1]octan-3-yl)-8-fluoro-2-(octahydro-2H-pyrrolo[3,4-c]pyridin-2-yl)quinazolin-7-yl)naphthalen-2-ol] here?
Answer: 0.0001 to 10 µM

Question: For `NC(=O)NCCN1[C@@H]2CC[C@H]1CN(c1nc(OCC34CCCN3CCC4)nc3c(F)c(-c4cc(O)cc5ccccc45)ccc13)C2` [P-0543, 1-(2-((1R,5S)-3-(8-fluoro-7-(3-hydroxynaphthalen-1-yl)-2-((tetrahydro-1H-pyrrolizin-7a(5H)-yl)methoxy)quinazolin-4-yl)-3,8-diazabicyclo[3.2.1]octan-8-yl)ethyl)urea], which IC50 is on record?
Answer: 0.0001 to 10 µM

Question: How did the IC50 turn out when `Oc1cc(-c2ccc3c(N4C[C@H]5CC[C@@H](C4)N5)nc(OCC4CCOC4)nc3c2)c2ccccc2c1` (stereo partly drawn) [P-0081, 4-(4-((1R,5S)-3,8-diazabicyclo[3.2.1]octan-3-yl)-2-((tetrahydrofuran-3-yl)methoxy)quinazolin-7-yl)naphthalen-2-ol] was run?
Answer: 0.0001 to 10 µM

Question: With `CN1CCC[C@H]1COc1nc(N2C[C@H]3CC[C@@H]2CN3)c2ccc(-c3cc(O)cc4ccccc34)cc2n1` [P-0012, 4-(4-((1R,4R)-2,5-diazabicyclo[2.2.2]octan-2-yl)-2-(((S)-1-methylpyrrolidin-2-yl)methoxy)quinazolin-7-yl)naphthalen-2-ol] as the molecule, how does the IC50 read?
Answer: 0.0001 to 10 µM

Question: Which IC50 does the source give for `O=C(CO)C1(O)CN(c2nc(N3C[C@H]4CC[C@@H](C3)N4)c3ccc(-c4cc(O)cc5ccccc45)c(F)c3n2)C1` [P-0507, 1-(1-(4-((1R,5S)-3,8-diazabicyclo[3.2.1]octan-3-yl)-8-fluoro-7-(3-hydroxynaphthalen-1-yl)quinazolin-2-yl)-3-hydroxyazetidin-3-yl)-2-hydroxyethan-1-one] here?
Answer: 0.0001 to 10 µM

Question: Which IC50 does the source give for `CC(C)C(CO)COc1nc(N2C[C@H]3CC[C@@H](C2)N3)c2ccc(-c3cc(O)cc4ccccc34)c(F)c2n1` (stereo partly drawn) [P-0586, 4-(4-((1R,5S)-3,8-diazabicyclo[3.2.1]octan-3-yl)-8-fluoro-2-(2-(hydroxymethyl)-3-methylbutoxy)quinazolin-7-yl)naphthalen-2-ol] here?
Answer: 0.0001 to 10 µM

Question: How did the IC50 turn out when `Fc1c(-c2cccc3cccc(Cl)c23)ccc2c(N3C[C@H]4CC[C@@H](C3)N4)nc(OCC34CCCN3CCC4)nc12` [P-0570, 4-((1R,5S)-3,8-diazabicyclo[3.2.1]octan-3-yl)-7-(8-chloronaphthalen-1-yl)-8-fluoro-2-((tetrahydro-1H-pyrrolizin-7a(5H)-yl)methoxy)quinazoline] was run?
Answer: 0.0001 to 10 µM

Question: For `NC1(CCO)CN(c2nc(N3C[C@H]4CC[C@@H](C3)N4)c3ccc(-c4cc(O)cc5ccccc45)c(F)c3n2)C1` [P-0546, 4-(2-(3-amino-3-(2-hydroxyethyl)azetidin-1-yl)-4-((1R,5S)-3,8-diazabicyclo[3.2.1]octan-3-yl)-8-fluoroquinazolin-7-yl)naphthalen-2-ol], which IC50 is on record?
Answer: 0.0001 to 10 µM

Question: With `CN(C)CC(C)(C)COc1nc(N2C[C@H]3CC[C@@H](C2)N3)c2ccc(-c3cc(O)cc4ccccc34)c(F)c2n1` [P-0589, 4-(4-((1R,5S)-3,8-diazabicyclo[3.2.1]octan-3-yl)-2-(3-(dimethylamino)-2,2-dimethylpropoxy)-8-fluoroquinazolin-7-yl)naphthalen-2-ol] as the molecule, how does the IC50 read?
Answer: 0.0001 to 10 µM

Question: How did the IC50 turn out when `CN1CCC[C@H]1COc1nc(N2CC3COCC(C2)N3)c2cc(Cl)c(-c3cc(O)cc4ccccc34)c(F)c2n1` [P-0040, 4-(4-(3-oxa-7,9-diazabicyclo[3.3.1]nonan-7-yl)-6-chloro-8-fluoro-2-(((S)-1-methylpyrrolidin-2-yl)methoxy)quinazolin-7-yl)naphthalen-2-ol] was run?
Answer: 0.0001 to 10 µM

Question: `OCC(CO)COc1nc(N2C[C@H]3CC[C@@H](C2)N3)c2ccc(-c3cc(O)cc4ccccc34)c(F)c2n1` [P-0524, 2-(((4-((1R,5S)-3,8-diazabicyclo[3.2.1]octan-3-yl)-8-fluoro-7-(3-hydroxynaphthalen-1-yl)quinazolin-2-yl)oxy)methyl)propane-1,3-diol] was tested. Which IC50 did it give?
Answer: 0.0001 to 10 µM

same assay, conditions: Table 4; geometric mean; comparison with compounds of WO 2017/172979; read-out: KRAS GMean IC50 (uM) MUTATION: G12D

Question: `CC1CN(c2nc(OCCCN3CCC(F)(F)C3)nc3c(F)c(-c4cc(O)cc5ccccc45)c(Cl)cc23)C(C)CN1` (stereo not drawn) [Compound 36 in WO 2017/172979, reference compound] was tested. Which IC50 did it give?
Answer: 3.06 µM
